According to US20260124192A1, “COMPOUNDS, COMPOSITIONS, AND METHODS OF TREATING RNA VIRAL INFECTIONS” (priority 2024, published 2026):
Where two headings read alike, the source gives them in different places.

Assays:
Cytotoxicity, XTT, MRC-5 = settings: human
[1] = system: MCF7 wild-type cell lines; assay: MCF7 growth inhibition assay (Cell Titre Glo 2.0); format: cell-based; settings: Homo sapiens
Protocol: The growth inhibition properties of inhibitors on MCF7 wild-type cell lines were evaluated using the Cell Titre Glo 2.0 cell viability reagent. The assay utilized 384-well black clear bottom plates with 20 μl of MCF7 wild-type cell suspension mixed with reference/test compounds and 20 μl of Cell Titre Glo 2.0 reagent. Cells were seeded at a density of 1000 cells/well in DMEM High Glucose culture media+10% Fetal Bovine Serum (FBS). Staurosporine and Camptothecin served as positive controls for confirming cytotoxicity at a concentration of 30 μM, and vehicle control of 1% DMSO was used to standardize conditions across all test points. The assay and culture media both contained 1% DMSO. Assays were conducted in duplicate for each concentration of the test compounds. The incubation period for the assay was set at 120 hours, after which growth inhibition was assessed. Using a multi-mode reader, the assay readout was based on luminescence measured in Relative Light Units (RLUs). The viability luminescence signal was monitored continually from the same wells over an extended period, allowing for detailed analysis of cell viability. Measurements were taken using an integration time ranging from 0.25 to 1 second across plates designated for various time points.
Cells were maintained and seeded in 384 […] plates, maintaining 1000 cells/well. Seeded plates were incubated at 37° C., 5% CO2 for 16-18 hours to ensure optimal cell adherence and growth. Post-incubation, reference, and test compounds were added carefully to the wells for further processing. Plates were incubated again at 37° C., 5% CO2 for 120 hours (5 days) to allow compound effects. This was followed by the addition of CTG reagent as per the kit's instruction protocol for 30 minutes and RLU data to be recorded. Post plate read data to be analyzed using GraphPad Prism for software IC50 value generation.
Next, the NCEs were tested for selective estrogen regulation modulation activity by using a growth inhibition assay. The assay is performed on MCF7 cells, which are derived from a hormone-dependent breast cancer that stops growing upon estrogen receptor inhibition. […] Staurosporine and Camptothecin served as positive controls for cytotoxicity and 1% DMSO as the vehicle control.

[2] = XTT cell viability assay, Huh-luc/neo-ET; format: cell-based; settings: human, Huh-luc/neo-ET cells, XTT, 72 hours, read-out: HCV 1b - TC50
Protocol: (§1) Twenty-four hours after seeding the cells, the cell culture supernatant was removed from each well and replaced with 175 μL fresh complete medium minus G418. Test compounds were evaluated at a high-test concentration of 10 μM and five serial half-logarithmic dilutions in three biological replicates. In three biological replicates, Sofosbuvir was evaluated in parallel at a high-test concentration of 1 μM and five serial half-logarithmic dilutions. Compounds were first serially diluted in DMSO to 400× of each final in-well concentration. An intermediate 8× solution was prepared in a complete medium and then added to the cells in a volume of 25 μL per well. A complete medium containing an equal percentage of DMSO (v/v) was added to vehicle-treated control cells. The final DMSO concentration was 0.25% (v/v) for all samples. The cells were incubated for an additional 72 hours at 37° C./5% CO2, then HCV replication was measured by luciferase activity and cell viability was assessed in parallel using an XTT colorimetric assay.
(§2) Huh-luc/neo-ET cell viability was measured at 72 hours after treatment using the tetrazolium dye XTT (2,3-bis(2-methoxy-4-nitro-5-sulfophenyI)-5[(phenylamino)carbonyl]-2H-tetrazolium hydroxide). Mitochondrial enzymes of metabolically active cells metabolize XTT-tetrazolium to a soluble formazan product. XTT solution was prepared fresh at 1 mg/mL in DMEM. Phenazine methosulfate (PMS) solution was prepared at 0.15 mg/mL in PBS and stored in the dark at −20° C. An XTT/PMS stock was prepared immediately before use by adding 40 μL of PMS per ml of XTT solution. Fifty microliters (50 μL) XTT/PMS were added per well, and the cells were incubated for 4 hours at 37° C. The cell culture plates were then sealed with adhesive plate sealers and shaken gently or inverted several times to mix the soluble formazan product. The formazan product was measured spectrophotometrically by absorbance at 450/650 nm on a Vmax plate reader (Molecular Devices). The raw data in Softmax Pro 5.4.2 software was imported into Microsoft Excel for further analysis. Data are presented as absorbance values (450/650 nm) or the percentage of viable cells relative to vehicle-treated control (mean+1—standard deviation, n=3 biological replicates from one independent experiment).

HCV genotype 1b replicon = assay: microbe, parasite or virus in culture; format: cell-based, Hepatitis C Virus; settings: for EC50: Hepatitis C virus; for HCV 1b - percent effect: @ 10 μM
CoV229E = assay: Anti-Coronavirus 229E cytoprotection (CPE) assay, MRC-5 (Method 3); format: cell-based, human Coronavirus 229E
MRC-5 cells = assay: Cytotoxicity, XTT, MRC-5; settings: read-out: CoV229E - TC50; MRC-5; XTT; six days
Huh-luc/neo-ET cells = assay: XTT cell viability assay, Huh-luc/neo-ET; format: cell-based; settings: XTT, 72 hours, read-out: HCV 1b - TC50
Protocol: as §1, §2

[3] = MCF7 growth inhibition, 120 hours, read-out: MCF-7 IC50
[4] = Huh-luc/neo-ET replicon, 72 hours, luciferase, read-out: HCV 1b - EC50
[5] = Human coronavirus 229E, MRC5, […], read-out: CoV229E - EC50 (μM), MRC-5, XTT cytoprotection, six days

SMILES	CC50 at 6 days (Cytotoxicity, XTT, MRC-5) [µM]	IC50 [1, 3] [µM]	CC50 at 72 h [2] [µM]	EC50 (HCV genotype 1b replicon; [4]) [µM]	EC50 (CoV229E; [5]) [µM]	other results
O=[N+]([O-])c1cccc2c1nc(-c1ccc(F)cc1)n2Cc1ccc(OCCN2CCCCC2)cc1 [MCAA-13]	> 5	2.47	> 10	7.05	2.96	
COc1ccc(-c2c(Cc3ccc(OCCN4CCCCC4)cc3)c3ccc(OC)cc3n2C)cc1 [MCAA-01]						CC50 (MRC-5 cells): > 5 µM; CC50 (Huh-luc/neo-ET cells): > 10 µM; EC50 (CoV229E; MRC-5, XTT cytoprotection, six days, read-out: CoV229E - EC50): 1.88 µM
Nc1cccc2nc(-c3ccc(F)cc3)n(Cc3ccc(OCCN4CCCCC4)cc3)c12 [MCAA-08]	> 5	> 10	> 10	9.59		CoV229E - percent effect (CoV229E; @ 5 μM, MRC-5): 33% @
O=[N+]([O-])c1cccc2nc(-c3ccc(F)cc3)n(Cc3ccc(OCCC4CCCCC4)cc3)c12 [MCAA-14]	> 5	4.38	> 10			HCV 1b - percent effect (HCV genotype 1b replicon; Huh-luc/neo-ET replicon): 34% @; CoV229E - percent effect (CoV229E; @ 5 μM, MRC-5): 31% @
Fc1ccc(-c2cc3sccc3n2Cc2ccc(OCCN3CCCCC3)cc2)cc1 [MCAA-06]	1.53	3.77	> 10	> 10	0.29	
Fc1ccc(-c2cc3sccc3n2Cc2ccc(OCCC3CCCCC3)cc2)cc1 [MCAA-07]	> 5	> 10	> 10			HCV 1b - percent effect (HCV genotype 1b replicon; Huh-luc/neo-ET replicon): 30% @; CoV229E - percent effect (CoV229E; @ 5 μM, MRC-5): 11% @
C[C@]12CC[C@@H]3c4ccc(O)cc4C[C@@H](CCCCCCCCC[S+]([O-])CCCC(F)(F)C(F)(F)F)[C@H]3[C@@H]1CC[C@@H]2O (stereo partly shown) [Fulvestrant, reference compound]						IC50 ([1]; MCF7, 120 h, read-out: MCF-7 IC50 (μM)): 0.00089 µM; IC50 ([1]; MCF7, read-out: IC50, MCF7 growth inhibition): 0.00089 µM
O=[N+]([O-])c1cccc2c1nc(-c1ccc(F)cc1)n2Cc1ccc(OCCC2CCCCC2)cc1 [MCAA-15]	> 5	0.57	> 10		> 5	HCV 1b - percent effect (HCV genotype 1b replicon; Huh-luc/neo-ET replicon): 38% @
COc1ccc(-c2c(Cc3ccc(OCCC4CCCCC4)cc3)c3ccc(OC)cc3n2C)cc1 [MCAA-05]	> 5	> 10	> 10	> 10	> 5	
Nc1cccc2c1nc(-c1ccc(F)cc1)n2Cc1ccc(OCCC2CCCCC2)cc1 [MCAA-11]	> 5	1.66	5.82	4.19	2.74	
CCC(CC)COC(=O)[C@H](C)N[P@](=O)(OC[C@H]1O[C@@](C#N)(c2ccc3c(N)ncnn23)[C@H](O)[C@@H]1O)Oc1ccccc1 [Remdesivir, reference compound]	> 1					EC50 (CoV229E; Human coronavirus 229E, MRC5, […], read-out: CoV229E - EC50 (μM)): 0.14 µM
O=[N+]([O-])c1cccc2nc(-c3ccc(F)cc3)n(Cc3ccc(OCCN4CCCCC4)cc3)c12 [MCAA-12]	> 5	1.15	> 10	2.78	2.94	
Nc1cccc2c1nc(-c1ccc(F)cc1)n2Cc1ccc(OCCN2CCCCC2)cc1 [MCAA-10]	> 5	0.53	> 10	7.2	2.85	
CC(C)OC(=O)[C@H](C)N[P@](=O)(OC[C@H]1O[C@@H](n2ccc(=O)[nH]c2=O)[C@](C)(F)[C@@H]1O)Oc1ccccc1 [Sofosbuvir, reference compound]			> 1			EC50 (HCV genotype 1b replicon; Huh-luc/neo-ET, 72 h, read-out: HCV 1b - EC50 (μM)): 0.06 µM
O=C(O)c1ccc(-c2c(CC3CCCC3)c3ccc(F)cc3n2Cc2ccc(OCCC3CCCCC3)cc2)cc1 [MCAA-03]	2.47	> 10	> 10	8.43		CoV229E - percent effect (CoV229E; @ 5 μM, MRC-5): 24% @
Cc1c(-c2ccc(O)cc2)n(Cc2ccc(OCCC3CCCCC3)cc2)c2ccc(O)cc12 [MCAA-04]	2.7	2.24	> 10	> 10		CoV229E - percent effect (CoV229E; @ 1.58 μM, MRC-5): 25% @
O=C(O)c1ccc(-c2c(CC3CCCC3)c3ccc(F)cc3n2Cc2ccc(OCCN3CCCCC3)cc2)cc1 [MCAA-02]	> 5	> 10	> 10	> 10	2.78	
Nc1cccc2nc(-c3ccc(F)cc3)n(Cc3ccc(OCCC4CCCCC4)cc3)c12 [MCAA-09]	> 5	1.21	> 10	> 10		CoV229E - percent effect (CoV229E; @ 5 μM, MRC-5): 13% @
